In patent US20220296572A1, “IMMUNOSUPPRESSIVE THERAPIES FOR USE WITH CARDIOMYOCYTE CELL THERAPIES, AND ASSOCIATED METHODS AND COMPOSITIONS” (Sana Biotechnology, Inc., priority 2021, published 2022):

Legend:
[1] = transplant recipients; cited from earlier work
[2] = Tacrolimus blood trough level in the rhesus recipient; format: in vivo, rhesus macaque (Macaca mulatta); details: subcutaneously twice per day
Protocol: Beginning five days prior to delivery of the cell therapy composition and continuing for 16 weeks after delivery, the rhesus recipient was treated daily with tacrolimus and MMF. Tacrolimus was provided subcutaneously twice per day at a dose yielding a blood trough level of approximately 5-10 ng/mL. MMF was provided orally twice per day, for a total dose of 250 mg MMF per day. If a subject cannot tolerate oral dosing of MMF, MMF can be alternatively provided by intravenous administration. In some cases, if a subject cannot tolerate oral MMF, the subject is administered intravenous MMF until the subject can tolerate oral MMF, at which point the subject is switched from intravenous to oral MMF Immune rejection of the riPSC-CMs 16 weeks after delivery was determined by histopathological analysis.

[3] = test system: T cells; details: relative to CsA; cited from earlier work

Compound	Safety profile relative to MMF [1]	Therapeutic equivalence to MMF [1]	Blood trough level [2] [ng/mL]	Concentrations giving similar effects to CsA, times lower [3] [times]
COc1c(C)c2c(c(O)c1C/C=C(\C)CCC(=O)[O-])C(=O)OC2.[Na+] [MS, mycophenolate sodium]	comparable safety profile	therapeutically equivalent to MMF	–	–
C=CC[C@@H]1/C=C(\C)C[C@H](C)C[C@H](OC)[C@H]2O[C@@](O)(C(=O)C(=O)N3CCCC[C@H]3C(=O)O[C@H](/C(C)=C/[C@@H]3CC[C@@H](O)[C@H](OC)C3)[C@H](C)[C@@H](O)CC1=O)[C@H](C)C[C@@H]2OC [Tacrolimus, tacrolimus]	–	–	5 to 10	100
